We go through nine molecules from article PMC6836125, “Antiamoebic Activities of Indolocarbazole Metabolites Isolated from Streptomyces sanyensis Cultures” (Marine Drugs, 2019).

Like-named read-outs stand apart in the source and are kept apart here.

A short description of series [1]: Cytotoxicity test, alamarBlue assay. The format is cell-based, murine. The settings on record: mouse, 37 °C, mean ± SD. How it is done:
(§1) The amoeba strain used in this study was the type strain: Acanthamoeba castellanii Neff (ATCC 30010) which was axenically grown in PYG medium (0.75% (w/v) proteose peptone, 0.75% (w/v) yeast extract and 1.5% (w/v) glucose) containing 40 µg/mL of gentamicin (Biochrom AG, Cultek, Granollers, Barcelona, Spain). The murine macrophages J774A.1 (ATCC TIB-67) cell line was cultured in RPMI 1640 medium supplemented with 10% fetal bovine serum at 37 °C and 5% CO2 atmosphere, was used for the cytotoxicity assays. Successively, the evaluated molecules were also tested against two clinical isolates, Acanthamoeba griffini, genotype T3 obtained in a previous study, and Acanthamoeba polyphaga genotype T4 ATCC 30461, both axenically grown in the same medium as A. castellanii Neff.
The cytotoxicity effect of active molecules was evaluated in murine macrophage J774A.1 cell line (ATCC # TIB-67) following the same protocol described above for Acanthamoeba trophozoites. Then, plates containing alamarBlue® were incubated for 24 h at 37 °C in presence of CO2 at 5%.
(§2) The percentage of the growth inhibition, 50% inhibitory concentration (IC50 or CC50), was calculated by nonlinear regression analysis with 95% confidence limits using Sigma Plot 12.0 statistical analysis software (Systat Software). All experiments were performed three times, and the mean values were also calculated. A paired two-tailed t-test was used for analysis of the data. Values of p < 0.05 were considered significant.
For orientation: The colour change of resazurin is a common sign of viable cells or microbes.

For series [2], the system named is A. polyphaga. As to the kind of experiment: Anti-Acanthamoeba activity on trophozoites, alamarBlue colorimetric assay. The format is cell-based. As to conditions: 96 h, read-out: IC50 A. polyphaga. How it is done:
as §1
(§3) To evaluate the biological activity of the fractions and molecules, the anti-Acanthamoeba experiments were carried out using the alamarBlue® colorimetric assay, as it was previously described. Briefly, Acanthamoeba strain was seeded in triplicate on 96-well microtiter plates (ThermoFisher™, Waltham, MA, USA) with 50 µL from a stock solution of 5 × 10^4 cells/mL and 50 µL of serial dilutions of the evaluated molecules in each well (1% DMSO was used to dissolve the highest dose of the compounds with no effects on the parasites). Two reference treatments such as chlorhexidine (chlorhexidine digluconate; Alfa Aesar) and voriconazole (Sigma), were used as positive controls. Finally, the alamarBlue® Reagent (Life Technologies, Madrid, Spain) was placed into each well at an amount equal to 10% of the final volume. Plates were incubated for 96 h at 26 °C with a slight agitation until their measurement in the EnSpire® Multimode Plate Reader (Perkin Elmer, Madrid, Spain) using fluorescence, at 570/585 nm.
as §2

For series [3], the system named is A. griffini. The description is as above. The format is cell-based. As to conditions: 96 h, read-out: IC50 A. griffini. Here is the method: as §1, §3, §2
For series [4], the system named is A. castellanii Neff. Described as above. It counts as cell-based, Acanthamoeba castellanii Neff. As to conditions: for IC50: 96 h, read-out: IC50 A. castellanii Neff. How it is done:
as §1, §3, §2

For series [5], the system named is A. castellanii Neff. As to the kind of experiment: Plasma membrane permeability (SYTOX Green). The format is cell-based, Acanthamoeba castellanii Neff. As to conditions: IC90, 24 h. How it is done:
In order to detect alterations of the membrane permeability in treated cells, the SYTOX Green (ThermoFischer^TM) assay was performed. Briefly, 10^5 trophozoite were washed and incubated in saline solution with SYTOX Green at a final concentration of 1 μM for 15 min in darkness. After that, IC90 of 7OSTS (2) was added to the cells and incubated for 24 h. Cells were observed and pictures were taken on the EVOS FL inverted microscope.

In series [6] the test system is A. castellanii Neff. As to the kind of experiment: Analysis of mitochondrial membrane potential (JC-1). It counts as cell-based, Acanthamoeba castellanii Neff. As to conditions: IC90, 24 h. How it is done: The use of JC-1 mitochondrial membrane potential detection kit (Cayman Chemical) it is possible to detect the collapse of an electrochemical gradient across the mitochondrial membrane during apoptosis process. 10^5 amoebas/mL were treated with IC90 of 7OSTS (2) for 24 h, the cells were centrifuged (1000 rpm × 10 min) and suspended in JC-1 buffer. Images were taken on the EVOS FL inverted microscope. The staining pattern allows the identification of two groups in a cellular population: live cells will show only red fluorescence, but cells with low mitochondrial potential (undergoing PCD) will show a higher level of green fluorescence.

The test system of series [7] is A. castellanii Neff. Kind of series: Measurement of ATP levels (CellTiter-Glo). The format is cell-based, Acanthamoeba castellanii Neff. As to conditions: IC90, 24 h. How it is done: An appropriate level of ATP is necessary to maintain the cell metabolism. The effect of the drug on the ATP production was evaluated by incubating (10^5) of cells/mL with the previously calculated IC90 of 7OSTS (2) using the CellTiter-Glo Luminescent Cell Viability Assay. The luminescence of each assay was measured on the EnSpire®.
On the technique in general: In ATP-based viability assays light output follows the ATP content of the culture.

The test system of series [8] is A. castellanii Neff cysts. Kind of series: In vitro activity against cysts (cysticidal assay, alamarBlue). As to conditions: mature cysts. It counts as cell-based, Acanthamoeba castellanii Neff. How it is done: On the other side, cysticidal activity of 7OSTS (2) was determined also using the alamarBlue™ reagent and confirmed visually by inverted microscopy. Cysts of A. castellaniii Neff were prepared as previously described. First of all, trophozoites were transferred from PYG medium based cultures (trophozoite medium) to Neff’s encystment medium (NEM; 0.1 M KCl, 8 mM MgSO4·7H2O, 0.4 mM CaCl2·2H2O, 1 mM NaHCO3, 20 mM ammediol [2-amino-2-methyl-1,3-propanediol; Sigma Aldrich Chemistry Ltd., Madrid, Spain], pH 8.8, at 25 °C) and were cultured in this medium with gently shaking for a week in order to obtain mature cysts. In order to carry out the cysticidal assay, mature cysts were harvested and washed twice with PYG medium. Serial dilutions of 7OSTS (2) were made in PYG and place onto sterile 96-well microtiter plates. 5·10^4 mature cysts of Acanthamoeba/mL were added to the wells with 50 µL of 7OSTS (2) dilutions. After 7 days of incubation, the plate was centrifuged at 3000 rpm for 10 min. The supernatant was removed and replaced with 100 µL of fresh PYG medium in each well. Finally, 10 μL of the alamarBlue® Reagent was placed into each well. The plates were then incubated for 144 h at 28 °C and the emitted fluorescence was measured with the EnSpire® Multimode Plate Reader (Perkin Elmer, Madrid, Spain) using fluorescence, at 570/585 nm. […]

Series [9] deals with A. castellanii Neff. As to the kind of experiment: Double-stain assay (Hoechst 33342/PI) for programmed cell death determination. The format is cell-based, Acanthamoeba castellanii Neff. As to conditions: IC90 concentration, 24 h. How it is done:
10^5 amoebas/well were incubated in a 24-well plate with the previously calculated IC90 of 7OSTS for 24 h. A double-stain apoptosis detection kit (Hoechst 33342/PI) (ThermoFisher™, Waltham, MA, USA) was used to carry out the experiment following the manufacturer’s recommendations. The images were obtained using the EVOS FL Cell Imaging System AMF4300, Life Technologies, USA. The double-staining pattern allows the identification of live cells with low level of fluorescence, cells undergoing PCD with a higher level of blue fluorescence (as chromatin condenses), and dead cells which will show low-blue and high-red fluorescence (as the propidium iodide stain enters the nucleus of dead cells).

Series [10] deals with cyclin-dependent kinase 4 (CDK4). The arrangement: method as in PMID 19132059, PMID 14552791. The settings on record: cited from earlier work.
Series [11] addresses protein kinase C (PKC). As to conditions: cited from earlier work.
The target in series [12] is protein kinase A (PKA). As to conditions: cited from earlier work.
Series [13] deals with calcium/calmodulin-dependent protein kinase II (CaMKII). The arrangement: method as in PMID 19132059, PMID 14552791. The settings on record: cited from earlier work.
Series [14] relates to human lung, colon, and nasopharyngeal carcinoma cell lines. Also noted: method as in PMID 3112080. As to conditions: read-out: IC50 cytotoxic activity; cited from earlier work.
Where [15] appears, read: read-out: Macrophage J774A.1 CC50.

As usually defined, the CC50 is the concentration at which the toxic effect on the cells reaches its halfway point. Usually IC50 stands for the concentration needed to halve the response being measured. As to `COC1C(=O)CC2OC1(C)n1c3ccccc3c3c4c(c5c6ccccc6n2c5c31)C(=O)NC4` (centres unmarked) [4’D4’OSTS (3), 4′-demethylamino-4′-oxostaurosporine], in series [1] (J774A.1 macrophage cells), the cytotoxic concentration (CC50) at 24 h is greater than 40 µM. Besides, the IC50 in [2] (trophozoites, 26 °C, mean ± SD) is greater than 40 µM; in series [3] (trophozoites, 26 °C, mean ± SD), 23.9 ± 0.55 µM; in [4] (trophozoites, 26 °C, mean ± SD), 7.53 ± 0.73 µM.

With `CNC1CC2OC(C)(C1OC)n1c3ccccc3c3c4c(c5c6ccccc6n2c5c31)C(=O)NC4=O` (centres unmarked) [7OSTS (2), 7-oxostaurosporine], the CC50 at 24 h in series [1] (setting [15]) was found to be 5.2 ± 1.75 µM. For the same molecule, the Plasma membrane permeability entry in [5] is listed as “plasmatic membrane damage”. Besides, in series [6], the Mitochondrial membrane potential entry was “decrease of the mitochondrial membrane potential”. Also, in series [7], the “ATP level compared to the negative control” value is recorded as 45%. Moreover, the IC50 in series [8] (Acanthamoeba castellanii) amounted to 0.92 ± 0.33 µM; in [2], 5.51 ± 0.09 µM; in series [3] it was 0.96 ± 0.19 µM; in [4], 0.83 ± 0.09 µM. Moreover, the Cyst viability result in series [8] (incubation up to 144 h) is “non-viable cysts were observed”. Also, the IC90 in series [4] (read-out: IC90 concentration) stood at 2.91 ± 0.67 µM. Besides, the Chromatin condensation result in series [9] was “induces chromatin condensation”.

Regarding `O=C1NC(=O)c2c1c1c3ccccc3[nH]c1c1[nH]c3ccccc3c21` [Arcyriaflavin A (7), arcyriaflavin A], the IC50 in [10] is 0.14 µM; in [11], greater than 100 µM; in series [2] (trophozoites, 26 °C, mean ± SD) it was 7.59 ± 0.73 µM; in [3] (trophozoites, 26 °C, mean ± SD), 7.53 ± 1.11 µM; in [12], greater than 2 µM; in [4] (trophozoites, 26 °C, mean ± SD), 7.32 ± 0.45 µM. Further, the concentration for half-maximal inhibition (IC50) in series [13] is 0.025 µM.

`[H]/N=C(\N/C(=N/[H])NCCCCCCNC(=N)NC(=N)Nc1ccc(Cl)cc1)Nc1ccc(Cl)cc1` [Chlorhexidine, chlorhexidine] registered a CC50 at 24 h in series [1] (J774A.1 macrophage cells) of 7.4 ± 0.39 µM. The IC50 in series [2] (trophozoites, 26 °C, mean ± SD) is 4.76 ± 0.08 µM.

In the case of `COC1=C(C)O[C@@H]2C[C@@]1(OC)n1c3ccccc3c3c4c(c5c6ccccc6n2c5c31)C(=O)NC4` [ICZ B (4), streptocarbazole B], in series [1] (J774A.1 macrophage cells), the CC50 at 24 h was greater than 40 µM. The half-inhibitory concentration (IC50) is greater than 40 µM in series [2] (trophozoites, 26 °C, mean ± SD); 14.5 ± 0.38 µM in series [3] (trophozoites, 26 °C, mean ± SD); 6.83 ± 2.6 µM in [4] (trophozoites, 26 °C, mean ± SD).

As to `O=C1NCc2c1c1c3ccccc3[nH]c1c1[nH]c3ccccc3c21` [K252c (6), K252c], the IC50 was 5.59 ± 0.34 µM in [2] (trophozoites, 26 °C, mean ± SD); 2.25 ± 0.32 µM in series [3] (trophozoites, 26 °C, mean ± SD); 25.7 µM in [12]; 6.17 ± 0.73 µM in [4] (trophozoites, 26 °C, mean ± SD).

With `CO[C@H]1[C@H](O)[C@@H](O)[C@H](n2c3c(Cl)cccc3c3c4c(c5c6cccc(Cl)c6[nH]c5c32)C(=O)NC4=O)O[C@@H]1CO` [Rebeccamycin (5), rebeccamycin], the IC50 in series [2] (trophozoites, 26 °C, mean ± SD) is 7.47 ± 0.61 µM; in series [3] (trophozoites, 26 °C, mean ± SD) it was 5.02 ± 0.18 µM; in series [14] it was 0.4 to 98 µM; in series [4] (trophozoites, 26 °C, mean ± SD), 5.37 ± 0.23 µM.

As for `CN[C@@H]1C[C@H]2O[C@@](C)([C@@H]1OC)n1c3ccccc3c3c4c(c5c6ccccc6n2c5c31)C(=O)NC4` [STS (1), staurosporine], the CC50 at 24 h in series [1] (setting [15]) came to 8.74 ± 0.72 µM.

Regarding `C[C@@H](c1ncncc1F)[C@](O)(Cn1cncn1)c1ccc(F)cc1F` [Voriconazole, voriconazole], in [1] (J774A.1 macrophage cells), the CC50 at 24 h was 7.56 ± 0.77 µM. Moreover, the IC50 in series [2] (trophozoites, 26 °C, mean ± SD) was 10.1 ± 2.21 µM; in [3] (trophozoites, 26 °C, mean ± SD) it was 0.1 ± 0.02 µM; in series [4] (trophozoites, 26 °C, mean ± SD), 0.94 ± 0.29 µM.
